Laboratory results from US20050239784A1 (priority 2002, published 2005).
Blank lines part the entries; values can stand above or below the molecule they belong to.

Columns and labels:
[1] = molecular target: CDK4 (Homo sapiens, UniProt P11802); test: biochemical; details: read-out: CDK4 SPA (Ex. C.1): pIC50 values (converted)
[2] = molecular target: T1, AKT3 (Homo sapiens, UniProt Q9Y243); test: biochemical; details: read-out: AKT3 pep. (Ex. C.3): pIC50 values (converted)
Target sequence in this assay (Q9Y243 whole entry, species assumed): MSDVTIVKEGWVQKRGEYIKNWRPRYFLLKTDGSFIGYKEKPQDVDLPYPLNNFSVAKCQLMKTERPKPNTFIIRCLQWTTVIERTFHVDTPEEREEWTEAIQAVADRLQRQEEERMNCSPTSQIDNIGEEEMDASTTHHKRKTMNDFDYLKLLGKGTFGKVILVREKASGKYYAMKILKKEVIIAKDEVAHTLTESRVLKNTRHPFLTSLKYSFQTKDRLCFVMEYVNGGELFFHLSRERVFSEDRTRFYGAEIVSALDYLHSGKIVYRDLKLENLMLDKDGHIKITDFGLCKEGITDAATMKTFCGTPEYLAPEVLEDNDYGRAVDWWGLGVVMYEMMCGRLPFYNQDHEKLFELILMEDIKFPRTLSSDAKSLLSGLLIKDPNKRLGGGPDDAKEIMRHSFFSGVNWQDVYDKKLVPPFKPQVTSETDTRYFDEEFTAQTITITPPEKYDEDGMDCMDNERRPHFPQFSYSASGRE

[3] = molecular target: T1, AKT3; test: cell-based; details: read-out: AKT cel (Ex. C.6): pIC50 values (converted)
Target sequence in this assay (Q9Y243 whole entry): as the sequence (Q9Y243 whole entry, species assumed) above

[4] = test system: A2780 cells; test: Cytotox survival of A2780 cells after 3 days; assay type: cell-based; details: Homo sapiens, A2780, 72 h, read-out: Cytotox survival of A2780 cells after 3 days - pIC50 values, A2780 cells, 3 days (converted)
Experimental: In an alternative assay, the growth inhibitory effect of the compounds was tested on the ovarian carcinoma cell line A2780 using art known cytotoxicity assays such as LIVE/DEAD (Molecular Probes) MTT.

[5] = molecular target: T2, CDC25B (Homo sapiens, UniProt P30305); test: biochemical; details: read-out: CDC25B WT (Ex. C.5): pIC50 values (converted)
T2 sequence (P30305 1-580): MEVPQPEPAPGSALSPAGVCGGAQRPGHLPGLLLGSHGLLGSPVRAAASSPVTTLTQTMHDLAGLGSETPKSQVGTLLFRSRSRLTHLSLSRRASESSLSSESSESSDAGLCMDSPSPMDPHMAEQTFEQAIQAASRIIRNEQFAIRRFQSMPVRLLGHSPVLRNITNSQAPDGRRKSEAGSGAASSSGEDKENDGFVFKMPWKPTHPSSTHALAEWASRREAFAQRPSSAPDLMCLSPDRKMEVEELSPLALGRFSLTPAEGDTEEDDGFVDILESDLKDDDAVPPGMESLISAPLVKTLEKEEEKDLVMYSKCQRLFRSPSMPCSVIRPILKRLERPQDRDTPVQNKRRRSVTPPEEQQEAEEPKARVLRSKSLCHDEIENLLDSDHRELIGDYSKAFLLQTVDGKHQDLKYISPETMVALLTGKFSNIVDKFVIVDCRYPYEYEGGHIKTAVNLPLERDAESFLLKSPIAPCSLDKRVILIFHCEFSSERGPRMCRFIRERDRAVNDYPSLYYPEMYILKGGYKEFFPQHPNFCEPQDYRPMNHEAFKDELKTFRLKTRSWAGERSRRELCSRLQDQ

[6] = physchem; details: pH 7.4, aqueous buffer, kinetic from dmso stock

CDK4, sequence (P11802 whole entry, species assumed): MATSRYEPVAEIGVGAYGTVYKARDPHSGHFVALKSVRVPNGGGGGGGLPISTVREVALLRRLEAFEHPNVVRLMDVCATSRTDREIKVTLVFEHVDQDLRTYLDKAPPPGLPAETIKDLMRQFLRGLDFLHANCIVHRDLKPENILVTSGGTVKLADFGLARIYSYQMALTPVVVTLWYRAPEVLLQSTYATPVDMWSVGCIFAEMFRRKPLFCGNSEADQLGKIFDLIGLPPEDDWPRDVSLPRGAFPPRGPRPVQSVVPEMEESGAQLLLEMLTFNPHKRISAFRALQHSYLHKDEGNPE
CDK4, sequence (P24385 whole entry partner, species assumed): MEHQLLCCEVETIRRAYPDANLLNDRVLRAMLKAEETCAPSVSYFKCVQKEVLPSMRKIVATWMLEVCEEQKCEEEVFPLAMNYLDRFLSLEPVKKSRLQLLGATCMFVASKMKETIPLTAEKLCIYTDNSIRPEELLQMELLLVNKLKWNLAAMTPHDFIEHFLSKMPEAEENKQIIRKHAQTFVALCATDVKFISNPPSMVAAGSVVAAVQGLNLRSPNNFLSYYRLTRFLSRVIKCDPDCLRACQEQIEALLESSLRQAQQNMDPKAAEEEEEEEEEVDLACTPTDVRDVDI

melting point: 233 °C
SMILES: COc1cc(-c2nc3c(=O)n(C)c(=O)nc-3n(C(C)C)n2)ccc1OCCN1CCN(C)CC1

melting point: 216 °C
SMILES: CCCC(C)n1nc(-c2ccccc2)nc2c(=O)n(C)c(=O)nc1-2 (stereo not shown)

melting point: 215 °C
SMILES: CCOC(=O)C(C)n1nc(-c2ccccc2)nc2c(=O)n(C)c(=O)nc1-2 (stereo not shown)

melting point: 250 °C
SMILES: Cn1c(=O)nc2n(C3CCN(C(=O)OC(C)(C)C)CC3)nc(-c3ccccc3)nc-2c1=O

melting point: 232 °C
SMILES: CC(C)n1nc(-c2ccc(OCCN3CCOCC3)cc2)nc2c(=O)n(C)c(=O)nc1-2

More lines, now with the values behind:

SMILES: COc1cc(-c2nc3c(=O)n(C)c(=O)nc-3n(C)n2)ccc1OCCN1CCN(C)CC1
melting point: 239 °C

SMILES: Cn1nc(-c2ccccc2)nc2c(=O)n(C3CCN(C(=O)OC(C)(C)C)CC3)c(=O)nc1-2
melting point: > 250 °C

SMILES: Cn1c(=O)nc2n(C3CCNCC3)nc(-c3ccccc3)nc-2c1=O
melting point: > 250 °C

SMILES: COc1cc(-c2nc3c(=O)n(C)c(=O)nc-3n(C3CCCC3)n2)cc(OC)c1OCCN1CCOCC1
melting point: 187.5 to 209 °C

SMILES: COc1cc(-c2nc3c(=O)n(C)c(=O)nc-3n(C(C)C)n2)ccc1OCCN1CCCCC1
melting point: 222 °C

SMILES: CC(C)n1nc(-c2ccc(CN(C)C3CCN(S(=O)(=O)N(C)C)CC3)cc2)nc2c(=O)n(C)c(=O)nc1-2 [Compound 113]
IC50 [1]: 151 nM
IC50 [2]: 184 nM
IC50 [3]: > 3020 nM
IC50 [4]: 220 nM
IC50 [5]: 119 nM
solubility [6]: > 1800 µM

SMILES: Cn1c(=O)nc2n(C3CCCC3)nc(-c3ccc(CN4CCNCC4)cc3)nc-2c1=O [Compound 153]
IC50 [1]: 369 nM
IC50 [2]: 335 nM
IC50 [3]: 495 nM
IC50 [4]: 181 nM
IC50 [5]: 46 nM
solubility [6]: > 1800 µM
